Measured values from patent publication US20250032493A1, “Methods for Treating Diseases Using MALT1 Inhibitors” (RARIFIED BIOSCIENCES, INC., priority 2021, published 2025).
Like-named read-outs stand apart in the source and are kept apart here.

What was measured:
[1] = test system: Tregs; assay: Mouse accelerated Lupus model: Treg levels; assay type: in vivo, mice; conditions: 3 and 30 mg/kg daily
Procedure: In this example, REO-528 MALT1 inhibitor was administered to mice of an accelerated Lupus Nephritis model (IFN-alpha accelerated) to investigate the impact of the administration of the MALT1 inhibitor. Mice were divided into 6 groups: 1) Naïve, 2) vehicle (weeks 13-18), 3) REO538 (3 mg/kg) daily administration weeks 13-18, 4) REO-538 (30 mg/kg) daily administration weeks 13-18, 5) REO-538 (30 mg/kg) daily administration weeks 15-18, and 6) BID dexamethasone (Dex) at 1 mg/kg for weeks 15-18. Groups 2 through 6 were also administered AAV encoding mIFNα to accelerate the lupus nephritis disease.

[2] = test system: rat collagen induced arthritis (CIA) model; assay: Rat collagen-induced arthritis model: clinical score
Description: Adult female Lewis Rats (180-200 g body weight) were immunized subcutaneously with Type II bovine collagen/Incomplete Freund's Adjuvant emulsion on Day 0 and Day 7. On Day 14 rats were randomized based on clinical disease scores in different treatment groups. Rats received either once daily (q.d) dose of compounds via oral gavage or Vehicle (0.5% Carboxymethylcellulose-Na+0.5% Tween 80 in water, suspension) for 2 weeks. Naïve rats used as controls.

[3] = test system: rat collagen induced arthritis (CIA) model; assay: Rat CIA model: plasma and synovial cytokines, anti-collagen and total IgG; assay type: in vivo
Procedure: (§1) For isolation of synovial fluid prior to study termination, animals were anesthetized and the skin on the hind limbs were separated to ensure exposure of knee joint. A small incision was made near the top of the knee joint and the articular cavity was rinsed with 60 μl phosphate-buffered saline (PBS) for 2 time and ˜50-60 μl synovial fluid was collected. The synovial fluid samples were spun down, and the supernatant stored at −80° C. prior to cytokine analysis. At study termination, plasma was prepared from whole blood and stored at −80° C. prior to cytokine analysis and measurement of total and anti-collagen IgG. Single cell suspensions were prepared from harvested spleens following standard methods and Treg frequencies measured by flow cytometry-based immunophenotyping of freshly isolated cells.
All cytokine measurements were performed using commercially available kits and as per manufacturer's protocol. Supernatants from human whole blood and cellular assays were quantified using the human Proinflammatory Panel 1 (human) kit on a Sector Imager 6000 reader (Meso Scale Discovery, Rockville, MD). IL-17a was quantified using the V-Plex Human IL-17a kit on a Sector Imager 6000 reader (Meso Scale Discovery, Rockville, MD). Supernatants from rat whole blood assay were analyzed for IL-2 levels using the rat IL-2 Duoset ELISA kit (R&D). […]

[4] = test system: splenic Tregs; assay: Rat CIA model: splenic Treg levels; assay type: in vivo; conditions: for reduction in the Treg levels: CIA rats, in comparison to vehicle
Procedure: as §1
Harvested spleens were homogenized in cold PBS and cellular debris removed by passing through a […] cell strainer. The cell suspension was centrifuged at 300×g for 5 min at 4° C. and the pellet was treated with 1×RBC lysis buffer per manufacturer's protocol (Thermofisher). The washed cell pellet was resuspended for a final concentration of 5-10×10^6 cells/ml and 100 μl of cell suspension was processed for immunophenotyping. […] Cells were washed with cold FACS wash buffer (BD) and fixed with 1×FoxP3/Transcription Factor Fixation Buffer (Thermofisher) for overnight at 4° C. […] Cells were washed 2-3× with the permeabilization and wash buffer as mentioned earlier, and finally resuspended in FACS wash buffer. Samples were acquired on a BD LSRFortessa flow cytometer and data analyzed using the FlowJo software (BD).

[5] = target: T1, MALT1 (Homo sapiens, UniProt Q9UDY8); assay: Example IC50 and IC90 values of MALT1 inhibitors (blood concentration targets); assay type: cell-based
T1 sequence (Q9UDY8 1-824): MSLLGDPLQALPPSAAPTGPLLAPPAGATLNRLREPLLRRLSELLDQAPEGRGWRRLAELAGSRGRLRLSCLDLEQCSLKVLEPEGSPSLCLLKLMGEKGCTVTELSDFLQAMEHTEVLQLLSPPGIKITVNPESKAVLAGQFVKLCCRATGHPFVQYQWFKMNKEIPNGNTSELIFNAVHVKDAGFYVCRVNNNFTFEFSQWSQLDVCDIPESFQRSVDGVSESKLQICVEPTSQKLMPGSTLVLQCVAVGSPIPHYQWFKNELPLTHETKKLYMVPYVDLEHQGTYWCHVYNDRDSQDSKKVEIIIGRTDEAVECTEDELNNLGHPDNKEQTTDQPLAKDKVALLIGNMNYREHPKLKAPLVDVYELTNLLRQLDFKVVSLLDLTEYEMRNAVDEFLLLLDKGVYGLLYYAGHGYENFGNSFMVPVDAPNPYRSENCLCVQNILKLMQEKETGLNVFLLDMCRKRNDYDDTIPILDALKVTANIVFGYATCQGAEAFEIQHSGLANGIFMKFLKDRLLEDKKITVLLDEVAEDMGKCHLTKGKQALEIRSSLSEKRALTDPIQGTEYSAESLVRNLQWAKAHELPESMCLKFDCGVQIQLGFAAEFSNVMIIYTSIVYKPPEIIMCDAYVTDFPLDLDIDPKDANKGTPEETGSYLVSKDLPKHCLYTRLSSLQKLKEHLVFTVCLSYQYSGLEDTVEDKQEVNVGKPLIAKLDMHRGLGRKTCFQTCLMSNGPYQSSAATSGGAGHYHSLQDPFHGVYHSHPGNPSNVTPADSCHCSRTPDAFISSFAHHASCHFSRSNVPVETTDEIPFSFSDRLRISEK
Description: In various embodiments, the plasma PK profile of the MALT1 inhibitor refers to a time over an IC50 blood concentration target following administration to the subject. As used herein, a “time over an IC50 blood concentration target” refers to a period of time following administration in which a concentration of the MALT1 inhibitor in the subject's blood is above the IC50 value.
In various embodiments, the plasma PK profile of the MALT1 inhibitor refers to a time over an IC90 blood concentration target following administration to the subject. As used herein, a “time over an IC90 blood concentration target” refers to a period of time following administration in which a concentration of the MALT1 inhibitor in the subject's blood is above the IC90 value.

[6] = test system: Jurkat-T cells; assay: Jurkat IL-2 assay; conditions: Jurkat-T cells (a-CD3/-CD28/-CD2); readout IL-2
Procedure: Cells were cultured in RPMI/10% FBS (Thermofisher) and maintained under a concentration of 3×10^6 cells/ml. MALT1i at different concentrations were stamped by ECHO onto 384-well plates (PerkinElmer, Waltham, MA) following which cells were plated in fresh media and incubated for 30 minutes before stimulation with soluble α-CD3/CD28/CD2 (ImmunoCult, Stemcell Technologies, Vancouver, Canada) for 24 h. Supernatants were collected as mentioned earlier and processed immediately for cytokine analysis or stored at −80° C. To assess viability of cells treated with compound, cells were lysed with CTG reagent (Promega, Madison, WI), and measured by luminometer.

[7] = test system: CD4+CD45RO+ Memory T-cells; assay: Memory CD4+ T-cell cytokine release assay; conditions: Memory T-cells (a-CD3/-CD28/-CD2)
Procedure: Memory CD4^+ T-cells were isolated from human donor PBMCs using an EasySep kit (Stemcell) and were rested overnight in complete RPMI media (Thermofisher) supplemented with 10% FBS (Atlanta Biologics), 10 mM HEPES, 2 mM GlutaMAX, 1 mM Na Pyruvate, and 1×MEM non-essential amino acids (Thermofisher).

[8] = test system: CD4+ Total T-cells; assay: Total CD4+ T-cell cytokine release assay; assay type: cell-based, human; conditions: CD4+ Total T-cells (a-CD3/-CD28)
Procedure: All cytokine measurements were performed using commercially available kits and as per manufacturer's protocol. Supernatants from human whole blood and cellular assays were quantified using the human Proinflammatory Panel 1 (human) kit on a Sector Imager 6000 reader (Meso Scale Discovery, Rockville, MD). IL-17a was quantified using the V-Plex Human IL-17a kit on a Sector Imager 6000 reader (Meso Scale Discovery, Rockville, MD). Supernatants from rat whole blood assay were analyzed for IL-2 levels using the rat IL-2 Duoset ELISA kit (R&D). Plasma and synovial samples harvested from the rat CIA study were quantified for proinflammatory cytokines using the rat V-PLEX Proinflammatory Panel 2 kit (MSD).

[9] = test system: Total B cells; assay: B-cell proliferation assay (BCR/CD40L); conditions: readout Proliferation
Procedure: Freshly isolated total CD19^+ B-cells (Stemcell) from Human PBMCs were labeled with 2 μM Cell Trace Violet (ThermoFisher) and incubated for 5 min on a Nutator. […] Proliferation was assessed by flow cytometry.

[10] = test system: human monocyte-derived macrophages; assay: Monocyte-derived macrophages stimulated with IgG immune complex; conditions: Macrophages (aIgG + IgG, immune-complex)
Procedure: (§2) After differentiation, cells were harvested with Accutase solution (Stemcell Technologies) and incubated for 2 h at 37° C., 5% CO2 in 96-well plates.

[11] = test system: human monocyte-derived macrophages; assay: Monocyte-derived macrophages stimulated with depleted zymosan
Procedure: as §2

CN(C(=O)C1CCS(=O)(=O)CC1)[C@@H](c1ccc(Nc2cnc3cccnc3c2C2CC2)cc1)C(F)(F)F [REO-538]
Treg levels [1]: reduced Treg levels in a dose dependent manner
reduction in the clinical score ([2]; 0.3 mg/kg dose, in comparison to the vehicle treatment): 26%
reduction in the clinical score ([2]; 1 mg/kg dose, in comparison to the vehicle treatment): 59%
reduction in the clinical score ([2]; 3 mg/kg dose, in comparison to the vehicle treatment): 65%
reduction in the clinical score ([2]; 10 mg/kg dose, in comparison to the vehicle treatment): 80%
reduction in the clinical score ([2]; Example 6: daily 3 mg/kg for 14 days, vs vehicle): 25%
reduction in the clinical score ([2]; Example 6: daily 10 mg/kg for 2 days followed by daily 3 mg/kg for 12 days, vs vehicle): 43%
reduction in the clinical score ([2]; Example 6: daily 10 mg/kg for 14 days, vs vehicle): 70%
log10AUC value at ~50% reduction in the clinical score ([2]; rat CIA model): ~1.2 μg*hr/mL
qualitative efficacy (FIG. 11) ([2]; rat CIA model): high efficacy
IL-1beta and IL-6 in synovial fluid ([3]; 10 mg/kg and 10+3 mg/kg groups in comparison to the 3 mg/kg group): lower
KC/GRO and TNFα in synovial fluid ([3]; each of the 3 mg/kg, 10 mg/kg and 10+3 mg/kg groups in comparison to vehicle): lower levels
reduction in the Treg levels ([4]; 1 mg/kg dose): 1%
reduction in the Treg levels ([4]; 10 mg/kg dose): 49%
log10AUC value at ~40% reduction in Treg levels ([4]; rat CIA model): ~2.0 μg*hr/mL
qualitative Treg impact (FIG. 11) ([4]; rat CIA model): low Treg impact
IC90 ([5]; example values, blood concentration target, read-out: IC90): 10.4 µM
IC90 ([5]; higher dotted line of FIG. 13B, read-out: IC90 value (estimated)): ~1 µg/mL
IC50 ([5]; lower dotted line of FIG. 13B, read-out: estimated IC50 value (converted)): ~0.376 µM

CO[C@@H](C)c1c(NC(=O)Nc2ccnc(C(F)(F)F)c2)cnc2cc(Cl)nn12 [REO-981]
Effect size (% Max. inhibition) [6]: >95%
Effect size (% Max. inhibition) ([7]; readout IFNg): ~80%
Effect size (% Max. inhibition) ([7]; readout IL-2): >90%
Effect size (% Max. inhibition) ([7]; readout IL-17): >90%
Effect size (% Max. inhibition) ([7]; readout TNFa): ~85%
Effect size (% Max. inhibition) ([8]; readout IFNg): >95%
Effect size (% Max. inhibition) ([8]; readout IL-2): >95%
Effect size (% Max. inhibition) ([8]; readout TNFa): ~85%
Effect size (% Max. inhibition) [9]: ~60%
Effect size (% Max. inhibition) ([10]; readout IL-6): >75%
Effect size (% Max. inhibition) ([10]; readout TNFa): ~74%
Effect size (% Max. inhibition) ([11]; readout IL-6): >60%
Effect size (% Max. inhibition) ([11]; readout TNFa): >75%
log10Ctrough value at ~50% reduction in the clinical score ([2]; rat, in vivo): ~2.6 ng/mL
log10Ctrough value at ~40% reduction in Treg levels ([4]; rat, in vivo): ~3.3 ng/mL
